Measurements published in PMC8795987, “Time-dependent inhibition of CYP3A4-mediated midazolam metabolism by macrolide antibiotics in CYP3A4 genetic variants: Comparison with testosterone metabolism” (International Journal of Clinical Pharmacology and …, 2021).
pKi: −log10 of the molar value.

Experiments:
CYP3A4 genetic variants = assay: Static model estimate of residual enzyme activity and midazolam AUC ratio in CYP3A4 genetic variants; design: species or system human; details: all genetic variants; increase in AUC of 2- to < 5-fold; estimated
Protocol: (§1) Based on the static model, residual enzyme activity (ε) under the steady state is determined by the inactivation rate by the MBI inhibitor (k inact ([I])) and the turnover rate in the absence of inhibitor (k deg), and calculated by using the following Equation 2.

[1] = Clinical plasma concentration; format: in vivo, human; details: for Cmax,u (maximum plasma unbound concentration in the clinical settings): Cmax × fu; for Cmax: oral, human plasma, converted from μg/mL
[2] = test system: five CYP3A4 genetic variants (Wt, .2, .7, .16, .18); assay: Mechanism-based inhibition of midazolam 1′-hydroxylation, results stated across the five variants; format: biochemical, human; details: all CYP3A4 variants; preincubation with NADPH-generating system
Protocol: (§2) Next, 4 µM midazolam solution (final concentration at incubation: 2 µM) together with NADPH-generating system solution and 300 mM K^+ phosphate buffer containing 0.3 mM EDTA were added to start the metabolic reaction for 20 minutes at 37 °C. The reaction was terminated by the addition of 450 µL of ice-cold methanol, followed by 50 µL of 0.1 µM nitrazepam as an internal standard. The mixture was then centrifuged at 3,500 ×g for 20 minutes at 4 °C, and the concentration of 1′-hydroxymidazolam in the supernatant was determined using HPLC-ultraviolet (UV) method described below.
(§3) The HPLC system consisted of a pump ([…]; Shimadzu, Kyoto, Japan), an UV-detector SPD-10AD (Shimadzu), and an octadecylsilyl column (Cosmosil, 5C18-MS-II, 4.6×250 mm, ODS; Nacalai Tesque, Kyoto, Japan). The mobile phase consisted of 50% methanol (v/v) and was pumped at a rate of 1.5 mL/min. The UV wavelength was set at 245 nm.
as §1

[3] = test system: CYP3A4 WT, .2, .7, .16, .18; assay: as above; format: biochemical, human; details: human, pH 7.4, probe midazolam 2 µM (1′-hydroxylation), range over the five variants
Protocol: as §2, §3, §1

CYP3A4.2 = molecular target: T1, CYP3A4.2 (Homo sapiens, UniProt P08684, S222P); assay: Mechanism-based inhibition of midazolam 1′-hydroxylation by recombinant CYP3A4.2; format: biochemical; details: substrate midazolam, geometric mean (–1S.D. ~ +1S.D.), n = 5
T1 construct: made in house; host or cells: Escherichia coli
T1 sequence (P08684 whole entry S222P): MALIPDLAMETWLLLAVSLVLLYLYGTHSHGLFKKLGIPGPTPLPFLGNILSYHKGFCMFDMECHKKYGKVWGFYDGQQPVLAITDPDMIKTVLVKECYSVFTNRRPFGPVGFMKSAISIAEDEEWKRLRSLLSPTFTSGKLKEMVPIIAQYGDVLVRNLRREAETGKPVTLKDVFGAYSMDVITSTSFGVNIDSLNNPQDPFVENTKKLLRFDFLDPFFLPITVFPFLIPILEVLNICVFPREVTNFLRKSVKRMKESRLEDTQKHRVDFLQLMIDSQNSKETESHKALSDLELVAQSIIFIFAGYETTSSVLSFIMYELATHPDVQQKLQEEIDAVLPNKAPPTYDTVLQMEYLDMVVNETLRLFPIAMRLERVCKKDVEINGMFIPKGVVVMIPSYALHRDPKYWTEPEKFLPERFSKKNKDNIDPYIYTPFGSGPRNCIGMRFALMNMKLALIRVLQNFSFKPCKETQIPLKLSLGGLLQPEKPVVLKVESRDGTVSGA
Protocol: (§4) 1′-Hydroxymidazolam was purchased from Biosciences-Discovery Labware (Tokyo, Japan). The membrane fraction of CYP3A4 (WT, .2, .7, .16, .18) expressed by Escherichia coli were prepared according to our previously reported method. All other chemicals and reagents of analytical and high-performance liquid chromatography (HPLC) grade were obtained from commercial sources.
as §2, §3

CYP3A4 WT = molecular target: T2, CYP3A4 WT (Homo sapiens, UniProt P08684); assay: Mechanism-based inhibition of midazolam 1′-hydroxylation by recombinant CYP3A4 WT; format: biochemical; details: substrate midazolam, geometric mean (–1S.D. ~ +1S.D.), n = 5, read-out: K I
T2 construct: made in house; host or cells: Escherichia coli
T2 sequence (P08684 whole entry): as the sequence (P08684 whole entry S222P) above, with P222S counted along it
Protocol: as §4, §2, §3

CYP3A4.16 = molecular target: T3, CYP3A4.16 (Homo sapiens, UniProt P08684, T185S); assay: Mechanism-based inhibition of midazolam 1′-hydroxylation by recombinant CYP3A4.16; format: biochemical; details: substrate midazolam, geometric mean (–1S.D. ~ +1S.D.), n = 5
T3 construct: made in house; host or cells: Escherichia coli
T3 sequence (P08684 whole entry T185S): as the sequence (P08684 whole entry S222P) above, with T185S, P222S counted along it
Protocol: as §4, §2, §3

CYP3A4.7 = molecular target: T4, CYP3A4.7 (Homo sapiens, UniProt P08684, G56D); assay: Mechanism-based inhibition of midazolam 1′-hydroxylation by recombinant CYP3A4.7; format: biochemical; details: substrate midazolam, geometric mean (–1S.D. ~ +1S.D.), n = 5
T4 construct: made in house; host or cells: Escherichia coli
T4 sequence (P08684 whole entry G56D): as the sequence (P08684 whole entry S222P) above, with G56D, P222S counted along it
Protocol: as §4, §2, §3

[4] = erythromycin; cited from earlier work
CYP3A = details: cited from earlier work

SMILES	extent of DDI category based on the FDA guideline (CYP3A4 genetic variants)	Cmax,u (maximum plasma unbound concentration in the clinical settings) [1] [nM]	Cmax [1] [nM]	inhibition of 1′-hydroxylation of midazolam by all CYP3A4 variants [2]	pKi ([3]; in vitro data in the present study, substrate midazolam, read-out: KI (range among variants))	KI (inactivation) ([3]; product of K I and fu,mic, read-out: KI,u (unbound concentration of inhibitor that confers half-maximal rate of inactivation)) [nM]	pKi (CYP3A4.2)	KI (inactivator concentration giving half-maximal inactivation rate) (CYP3A4 WT) [nM]	pKi (CYP3A4.16)	pKi (CYP3A4.7)	fu,mic (estimated unbound fraction in microsomal preparation) [4]	fm,CYP3A (contribution of 1-hydroxylation by CYP3A to overall systemic elimination) (CYP3A) [%]
CC[C@H]1OC(=O)[C@H](C)[C@@H](O[C@H]2C[C@@](C)(OC)[C@@H](O)[C@H](C)O2)[C@H](C)[C@@H](O[C@@H]2O[C@H](C)C[C@H](N(C)C)[C@H]2O)[C@](C)(OC)C[C@@H](C)C(=O)[C@H](C)[C@@H](O)[C@]1(C)O [Clarithromycin]	moderate	775	1550	time-dependent manner	5.57 to 6.16	590 to 2310						
CC[C@H]1OC(=O)[C@H](C)[C@@H](O[C@H]2C[C@@](C)(OC)[C@@H](O)[C@H](C)O2)[C@H](C)[C@@H](O[C@@H]2O[C@H](C)C[C@H](N(C)C)[C@H]2O)[C@](C)(O)C[C@@H](C)C(=O)[C@H](C)[C@@H](O)[C@]1(C)O [Erythromycin]		721	1120				5.94	677	5.74	6.29	0.857	
Cc1ncc2n1-c1ccc(Cl)cc1C(c1ccccc1F)=NC2 [midazolam, Midazolam]												98
